# Data: paper PMC3526545, “New perspectives for natural antimicrobial peptides: application as antinflammatory drugs in a murine model” (BMC Immunology, 2012)
# Where “and” joins values, the source holds several entries; their conditions need not be identical. Identical values can stand only once.
# What was measured:
# J774 cells = test: Nitrite (NO2-) formation in J774 cells, Griess reaction; format: cell-based, mouse
# [1] = test system: Staphylococcus epidermidis strains; test: % inhibition of bacterial growth by the MIX and its components; format: cell-based; conditions: MIX = both
# Experimental: (§1) Antibacterial activity of the peptides used in this work was evaluated as described previously. […] The fractional inhibitory concentration (FIC) index for combinations of two peptides was calculated according to the equation: FIC index = […] = A/MICA + B/MICB , where A and B are the MICs of drug A and drug B in the combination, MICA and MICB are the MICs of drug A and drug B alone, and FICA and FICB are the FICs of drug A and drug B. The FIC indices were interpreted as follows: ≤0.5, synergy; 0.51-4.0, no interaction; > 4.0, antagonism. The growth inhibition percentages of Staphylococcus epidermidis and probiotic strains were assessed under the same conditions.
# [2] = test system: Staphylococcus epidermidis strains; test: Antibacterial activity of AMPs (MIC100) and synergism (FIC index); format: cell-based; conditions: against Staphylococcus epidermidis strains, single agent
# Experimental: as §1, with “antagonism.” for “antagonism. The growth inhibition percentages of Staphylococcus epidermidis and probiotic strains were assessed under the same conditions.”
substance,measurement,setting,value
"KKYLLPI VGNLLKSLL-NH2 [TB-KK, analogue of the temporin B]",NO2- production of J774 cells,J774 cells,0.82 ± 0.05 μmol/10^6 cells and 1.25 ± 0.2 μmol/10^6 cells and 1.34 ± 0.2 μmol/10^6 cells
same,"NO2- synthesis in LPS-stimulated J774 cells, in words",J774 cells,reduced NO2^- synthesis
same,% inhibition of bacterial growth,"[1]; strain 2/2, RJI-C 9 μg/ml, TB-KK 6 μg/ml",23 ± 0.5%
same,% inhibition of bacterial growth,"[1]; strain 3/28, RJI-C 9 μg/ml (7.3 μM), TB-KK 6 μg/ml (2.6 μM)",19 ± 2%
same,% inhibition of bacterial growth,"[1]; strain 5/6, RJI-C 9 μg/ml, TB-KK 6 μg/ml",10 ± 1%
same,% inhibition of bacterial growth,"[1]; strain 5/8, RJI-C 9 μg/ml, TB-KK 6 μg/ml",21 ± 2%
same,% inhibition of bacterial growth,"[1]; strain 5/25, RJI-C 9 μg/ml, TB-KK 6 μg/ml",21 ± 1%
same,% inhibition of bacterial growth,"[1]; strain 9/1, RJI-C 9 μg/ml, TB-KK 6 μg/ml",26 ± 2%
same,% inhibition of bacterial growth,"[1]; strain 10/28, RJI-C 9 μg/ml, TB-KK 6 μg/ml",4 ± 1%
same,% inhibition of bacterial growth,"[1]; strain 12/14, RJI-C 9 μg/ml, TB-KK 6 μg/ml",20 ± 3%
same,% inhibition of bacterial growth,"[1]; strain 12/26, RJI-C 9 μg/ml, TB-KK 6 μg/ml",14 ± 2%
same,MIC100,[2]; 10^5 CFU/well,7 µg/mL
same,MIC,[2]; value in brackets,3 µM
